Source: patent US10131652B2, “Pyrimidinyloxy benzene derivatives as herbicides” (E. I. DU PONT DE NEMOURS AND COMPANY, priority 2014, dated 2018)

Tests used:
Assay type in all cases: in vivo
[1] = system: galium (catchweed bedstraw, Galium aparine); experiment: Test B postemergence plant response
Method in brief: (§1)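 Seedlings in a loam soil and sand mix received a postemergence application of the formulated chemicals at the one- to two-leaf stage (2–10 cm tall). They were kept in a greenhouse for roughly 10 days, then scored for injury relative to untreated plants, 0 meaning no effect and 100 complete control.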

[2] = system: blackgrass (Alopecurus myosuroides); experiment: Test B postemergence plant response
Method in brief: as §1

[3] = system: barnyardgrass (Echinochloa crus-galli); experiment: Test C flooded paddy test plant response; details: Flood, 250 g ai/ha; scale of 0 to 100 where 0 is no effect and 100 is complete control; 13 to 15 days
Method in brief: (§2)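 2-leaf plants; flood 3 cm, cpd into paddy water; greenhouse 13–15 d; visual score vs untreated, 0 = no effect, 100 = complete control; dash = no result.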

[4] = system: small-flower umbrella sedge (Cyperus difformis); experiment: Test C flooded paddy test plant response; details: Flood, 250 g ai/ha; scale of 0 to 100 where 0 is no effect and 100 is complete control; 13 to 15 days
Method in brief: as §2

[5] = system: ducksalad (Heteranthera limosa); experiment: Test C flooded paddy test plant response; details: Flood, 250 g ai/ha; scale of 0 to 100 where 0 is no effect and 100 is complete control; 13 to 15 days
Method in brief: as §2

rice (Oryza sativa) = experiment: Test C flooded paddy test plant response; details: Flood, 250 g ai/ha; scale of 0 to 100 where 0 is no effect and 100 is complete control; 13 to 15 days
Method in brief: as §2

kochia (Kochia scoparia) = experiment: Test B pre-/postemergence plant response
Description: (§3) Seeds of plant species selected from bamyardgrass (Echinochloa crus-galli), kochia (Kochia scoparia), ragweed (common ragweed, Ambrosia elatior), Italian ryegrass (Lolium multiflorum), large (Lg) crabgrass (Digitaria sanguinalis), giant foxtail (Setaria faberii), momingglory (Ipomoea spp.), pigweed (Amaranthus retroflexus), velvetleaf (Abutilon theophrasti), wheat (Triticum aestivum), and corn (Zea mays) were planted into a blend of loam soil and sand and treated preemergence with a directed soil spray using test chemicals formulated in a non-phytotoxic solvent mixture which included a surfactant. At the same time, plants selected from these crop and weed species and also blackgrass (Alopecurus myosuroides), and galium (catchweed bedstraw, Galium aparine) were planted in pots containing the same blend of loam soil and sand and treated with postemergence applications of test chemicals formulated in the same manner. Plants ranged in height from 2 to 10 cm and were in the one- to two-leaf stage for the postemergence treatment. Treated plants and untreated controls were maintained in a greenhouse for approximately 10 days, after which time all treated plants were compared to untreated controls and visually evaluated for injury. Plant response ratings, summarized in Table B, are based on a 0 to 100 scale where 0 is no effect and 100 is complete control. A dash (-) response means no test result.

corn (Zea mays) = experiment: Test B pre-/postemergence plant response
Description: as §3

[6] = system: wheat (Triticum aestivum); experiment: Test B pre-/postemergence plant response
Description: as §3

[7] = system: ragweed (common ragweed, Ambrosia elatior); experiment: Test B pre-/postemergence plant response
Description: as §3

[8] = system: giant foxtail (Setaria faberii); experiment: Test B pre-/postemergence plant response
Description: as §3

[9] = system: barnyardgrass (Echinochloa crus-galli); experiment: Test B pre-/postemergence plant response
Description: as §3

[10] = system: Italian ryegrass (Lolium multiflorum); experiment: Test B pre-/postemergence plant response
Description: as §3

[11] = system: pigweed (Amaranthus retroflexus); experiment: Test B pre-/postemergence plant response
Description: as §3

[12] = 125 g ai/ha, postemergence, 0 to 100 scale, 0 no effect, 100 complete control
[13] = Postemergence, 500 g ai/ha, 0 to 100 scale (0 no effect, 100 complete control)
[14] = Preemergence, 125 g ai/ha, 0 to 100 scale (0 no effect, 100 complete control)
[15] = Preemergence, 500 g ai/ha, 0 to 100 scale where 0 is no effect and 100 is complete control
[16] = 31 g ai/ha, Postemergence, 0 to 100 scale, 0 no effect, 100 complete control
[17] = 31 g ai/ha, Preemergence, 0 to 100 scale where 0 is no effect and 100 is complete control

Compound	Plant response rating, Galium [1, 12]	Plant response rating, Blackgrass [2, 12]	Barnyardgrass plant response rating [3]	Sedge, Umbrella plant response rating [4]	Ducksalad plant response rating [5]	Rice plant response rating (rice (Oryza sativa))	Plant response rating, Kochia (kochia (Kochia scoparia); [12])	Kochia plant response rating (kochia (Kochia scoparia); [14])	Plant response rating, Corn (corn (Zea mays); [12])	Plant response rating, Wheat [6, 12]	Plant response rating, Ragweed [7, 12]	Ragweed plant response rating [7, 14]	Plant response rating, Foxtail, Giant [8, 12]	Foxtail, Giant plant response rating [8, 14]	Plant response rating, Barnyardgrass [9, 12]	Barnyardgrass plant response rating [9, 14]	Plant response rating, Ryegrass, Italian [10, 12]	Ryegrass, Italian plant response rating [10, 14]	Plant response rating, Pigweed [11, 12]	Pigweed plant response rating [11, 14]	also measured
FC(F)(F)c1csc(-c2ccccc2Oc2ncc(I)cn2)n1 [Compound 138]	0	0	0	0	20	0	0	0	0	0	0	0	0	0	0	0	0	0	0	0	Plant response rating, Galium [1, 13]: 0; Plant response rating, Blackgrass [2, 13]: 0; Plant response rating, Kochia (kochia (Kochia scoparia); [13]): 0; Plant response rating, Kochia (kochia (Kochia scoparia); [15]): 0; Plant response rating, Corn (corn (Zea mays); [13]): 0; Plant response rating, Wheat [6, 13]: 0; Plant response rating, Ragweed [7, 13]: 0; Plant response rating, Ragweed [7, 15]: 0; Plant response rating, Foxtail, Giant [8, 13]: 0; Plant response rating, Foxtail, Giant [8, 15]: 0; Plant response rating, Barnyardgrass [9, 13]: 0; Plant response rating, Barnyardgrass [9, 15]: 0; Plant response rating, Ryegrass, Italian [10, 13]: 0; Plant response rating, Ryegrass, Italian [10, 15]: 0; Plant response rating, Pigweed [11, 13]: 0; Plant response rating, Pigweed [11, 15]: 0
FC(F)(F)c1csc(-c2ccccc2Oc2ncc(Br)cn2)n1 [Compound 139]	0	0	0	0	30	20	0	0	0	0	0	0	0	0	0	0	0	0	0	0	Plant response rating, Galium [1, 13]: 0; Plant response rating, Blackgrass [2, 13]: 0; Plant response rating, Kochia (kochia (Kochia scoparia); [13]): 0; Plant response rating, Kochia (kochia (Kochia scoparia); [15]): 0; Plant response rating, Corn (corn (Zea mays); [13]): 0; Plant response rating, Wheat [6, 13]: 0; Plant response rating, Ragweed [7, 13]: 0; Plant response rating, Ragweed [7, 15]: 0; Plant response rating, Foxtail, Giant [8, 13]: 0; Plant response rating, Foxtail, Giant [8, 15]: 0; Plant response rating, Barnyardgrass [9, 13]: 0; Plant response rating, Barnyardgrass [9, 15]: 0; Plant response rating, Ryegrass, Italian [10, 13]: 0; Plant response rating, Ryegrass, Italian [10, 15]: 0; Plant response rating, Pigweed [11, 13]: 0; Plant response rating, Pigweed [11, 15]: 0
O=Cc1cc(-c2ccccc2Oc2ncc(Cl)cn2)co1 [Compound 140]	0	0	0	0	0	0	0	0	0	0	0	0	0	0	0	0	0	0	0	0	Plant response rating, Blackgrass [2, 16]: 0; Plant response rating, Kochia (kochia (Kochia scoparia); [17]): 0; Plant response rating, Corn (corn (Zea mays); [16]): 0; Plant response rating, Ragweed [7, 17]: 0; Plant response rating, Foxtail, Giant [8, 16]: 0; Plant response rating, Foxtail, Giant [8, 17]: 0; Plant response rating, Barnyardgrass [9, 16]: 0; Plant response rating, Barnyardgrass [9, 17]: 0; Plant response rating, Ryegrass, Italian [10, 17]: 0; Plant response rating, Pigweed [11, 17]: 0
FC(F)c1cc(-c2ccccc2Oc2ncc(Cl)cn2)co1 [Compound 141]	0	0	0	0	30	0	0	0	30	0	0	0	0	0	0	0	0	0	20	0	Plant response rating, Blackgrass [2, 16]: 0; Plant response rating, Kochia (kochia (Kochia scoparia); [17]): 0; Plant response rating, Corn (corn (Zea mays); [16]): 0; Plant response rating, Ragweed [7, 17]: 0; Plant response rating, Foxtail, Giant [8, 16]: 0; Plant response rating, Foxtail, Giant [8, 17]: 0; Plant response rating, Barnyardgrass [9, 16]: 0; Plant response rating, Barnyardgrass [9, 17]: 0; Plant response rating, Ryegrass, Italian [10, 17]: 0; Plant response rating, Pigweed [11, 17]: 0
FC(F)(F)C(F)(F)c1cc(-c2ccccc2Oc2ncc(Cl)cn2)no1 [Compound 142]	10	0	0	0	0	0	20	0	20	0	0	0	0	20	0	0	0	0	20	0	Plant response rating, Blackgrass [2, 16]: 0; Plant response rating, Kochia (kochia (Kochia scoparia); [17]): 0; Plant response rating, Corn (corn (Zea mays); [16]): 0; Plant response rating, Ragweed [7, 17]: 0; Plant response rating, Foxtail, Giant [8, 16]: 0; Plant response rating, Foxtail, Giant [8, 17]: 0; Plant response rating, Barnyardgrass [9, 16]: 0; Plant response rating, Barnyardgrass [9, 17]: 0; Plant response rating, Ryegrass, Italian [10, 17]: 0; Plant response rating, Pigweed [11, 17]: 0
